The assay has as its system HCV replicon. Nature of the assay: HCV replicon assay (luciferase, 5-2 Luc replicon cells). The format is cell-based. Particulars: Hepatitis C virus, 24 hours with compound, luciferase activity. The source says:
In one embodiment, the inhibitory activity of the compounds can be confirmed in a replicon assay that assesses the ability of a test compound to block or inhibit HCV replication in replicon cells. One example of a suitable replicon assay is the liver cell-line Huh 7-based replicon assay described in Lohmann et al., 1999, Science 285:110–113. A specific example of this replicon assay which utilizes luciferase translation is provided in the Examples Section. In one embodiment of this assay, the amount of test compound that yields a 50% reduction in translation as compared to a control cell (IC50) may be determined.
The inhibitory activity of certain exemplary compounds of the invention was confirmed using an HCV replicon assay. The HCV replicon can include such features as the HCV 5′ untranslated region including the HCV IRES, the HCV 3′ untranslated region, selected HCV genes encoding HCV polypeptides, selectable markers, and a reporter gene such as luciferase, GFP, etc. In the assay, actively dividing 5–2 Luc replicon-comprising cells (obtained from Ralf Bartenschlager; see Lohmann et al., 1999, Science 285:110–113) were seeded at a density of between about 5,000 and 7,500 cells/well onto 96 well plates (about 90 μl of cells per well) and incubated at 37° C. and 5% CO2 for 24 hours. Then, the test compound (in a volume of about 10 μl) was added to the wells at various concentrations and the cells were incubated for an additional 24 hours before luciferase assay. Briefly, the Bright-Glo reagent was diluted 1:1 with PBS and 100 μl of diluted reagent was added to each well. After 5 min of incubation at room temperature, luciferin emission was quantified with a luminometer. In this assay, the amount of test compound that yielded a 50% reduction in luciferase activity (IC50) was determined.
Background: Replicon systems follow genome replication, usually without infectious particles.

Where only a bound is given, the exact number is not on record here.

With `O=[N+]([O-])c1cccc(-c2cnc(-c3c(Cl)cccc3Cl)s2)c1` [Compound 17, 2-(2,6-dichlorophenyl)-5-(3-nitrophenyl)thiazole], the IC50 was more than 10 µM.

Turning to `O=C(Nc1ccccc1-c1cc(-c2c(Cl)cccc2Cl)no1)C(Cl)Cl` [Compound 18, 2,2-Dichloro-N-[2-[3-(2,6-dichlorophenyl)-5-isoxazolyl]phenyl]Acetamide], the IC50 was more than 10 µM.

As for `O=C(Nc1cccc(-c2cnc(-c3c(Cl)cccc3Cl)s2)c1)C(Cl)Cl` [Compound 19, 2,2-Dichloro-N-[3-[2-(2,6-dichlorophenyl)-5-thiazolyl]phenyl]Acetamide], the IC50 is more than 10 µM.

Turning to `Nc1cccc(-c2cnc(-c3c(Cl)cccc3Cl)s2)c1` [Compound 20, 2-(2,6-dichlorophenyl)-5-(3-aminophenyl)thiazole], the IC50 was more than 10 µM.

Take `O=C(Nc1cccc(-c2cc(-c3c(Cl)cccc3Cl)on2)c1)C(Cl)Cl` [Compound 39, 2,2-Dichloro-N-[3-[5-(2,6-dichlorophenyl)-3-isoxazolyl]phenyl]Acetamide]: the IC50 was less than 10 µM.

Turning to `O=C(Nc1ccc(-c2cc(-c3ccccc3Cl)no2)cc1)C(Cl)Cl` [Compound 55, 2,2-Dichloro-N-[4-[3-(2-chlorophenyl)-5-isoxazolyl]phenyl]Acetamide], the IC50 was not above 10 µM.

Turning to `O=C(Nc1ccc(-c2cc(-c3c(F)cccc3F)no2)cc1)C(Cl)Cl` [Compound 59, 2,2-Dichloro-N-[4-[3-(2,6-difluorophenyl)-5-isoxazolyl]phenyl]Acetamide], the IC50 is not above 10 µM.

`O=C(Nc1ccc(-c2cc(-c3c(Cl)cccc3Cl)no2)cc1)C(Cl)Cl` [Compound 60, 2,2-Dichloro-N-[4-[3-(2,6-dichlorophenyl)-5-isoxazolyl]phenyl]Acetamide]: the half-maximal inhibitory concentration (IC50) was more than 10 µM.

Broadly, the IC50 is the midpoint of a concentration-inhibition curve.
